Consider two molecules from PMC6117411, “De novo Transcriptome Characterization of Rhodomyrtus tomentosa Leaves and Identification of Genes Involved in α/β-Pinene and β-Caryophyllene Biosynthesis” (Frontiers in Plant Science, 2018).

Holding throughout (type): biochemical
What all share (settings): 25 mM HEPES pH 7.0, 10 mM MgCl2, 5 mM DTT, 10 mM substrate, 30 C, 30 min

The target of assay [1] is T1, RtTPS1 (Rhodomyrtus tomentosa, UniProt A0A385J6X8).
T1 construct: gene TPS1; 38 residues upstream of RRX8W motif; TPS-b subfamily
T1 sequence (A0A385J6X8 1-581): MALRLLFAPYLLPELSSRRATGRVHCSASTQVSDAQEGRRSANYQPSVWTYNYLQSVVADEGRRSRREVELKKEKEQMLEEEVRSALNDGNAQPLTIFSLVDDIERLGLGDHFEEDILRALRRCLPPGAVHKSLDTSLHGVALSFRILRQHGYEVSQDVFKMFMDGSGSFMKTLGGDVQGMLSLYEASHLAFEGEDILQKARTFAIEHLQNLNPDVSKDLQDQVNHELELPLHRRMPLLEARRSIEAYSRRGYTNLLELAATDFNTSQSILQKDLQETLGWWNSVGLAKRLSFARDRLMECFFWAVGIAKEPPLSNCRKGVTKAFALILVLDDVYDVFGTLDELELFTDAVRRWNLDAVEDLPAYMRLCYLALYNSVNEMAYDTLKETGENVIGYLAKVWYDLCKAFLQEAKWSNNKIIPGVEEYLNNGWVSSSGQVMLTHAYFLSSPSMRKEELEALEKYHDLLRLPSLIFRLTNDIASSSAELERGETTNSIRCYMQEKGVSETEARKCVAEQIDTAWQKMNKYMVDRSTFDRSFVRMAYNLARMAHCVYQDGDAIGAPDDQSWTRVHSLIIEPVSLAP
The assay can be described thus: product formation by GC-MS.

In assay [2] the target is T2, RtTPS3 (Rhodomyrtus tomentosa, UniProt A0A385J6Y9).
T2 construct: gene TPS3; 52 residues upstream of RRX8W motif; TPS-a subfamily
T2 sequence (A0A385J6Y9 1-597): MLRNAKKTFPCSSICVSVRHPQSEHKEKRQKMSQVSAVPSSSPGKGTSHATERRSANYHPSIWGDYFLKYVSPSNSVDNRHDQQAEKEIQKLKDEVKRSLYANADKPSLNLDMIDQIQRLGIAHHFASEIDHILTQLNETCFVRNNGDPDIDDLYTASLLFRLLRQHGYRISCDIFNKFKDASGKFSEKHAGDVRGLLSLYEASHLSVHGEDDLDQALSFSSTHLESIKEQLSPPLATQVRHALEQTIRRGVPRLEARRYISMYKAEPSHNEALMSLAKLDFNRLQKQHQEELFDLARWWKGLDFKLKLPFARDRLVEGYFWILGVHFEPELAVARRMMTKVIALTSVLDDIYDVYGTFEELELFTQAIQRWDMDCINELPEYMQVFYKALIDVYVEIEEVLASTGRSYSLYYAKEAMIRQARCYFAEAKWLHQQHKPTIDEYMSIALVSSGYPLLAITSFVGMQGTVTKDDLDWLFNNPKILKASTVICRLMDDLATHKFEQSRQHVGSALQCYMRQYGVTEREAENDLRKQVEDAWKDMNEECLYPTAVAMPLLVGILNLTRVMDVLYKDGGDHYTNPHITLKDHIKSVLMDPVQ
The assay can be described thus: product formation by GC-MS.

For another assay, the target named is T3, RtTPS2 (Rhodomyrtus tomentosa, UniProt A0A385J6Y6).
T3 construct: gene TPS2; TPS-b subfamily
T3 sequence (A0A385J6Y6 1-599): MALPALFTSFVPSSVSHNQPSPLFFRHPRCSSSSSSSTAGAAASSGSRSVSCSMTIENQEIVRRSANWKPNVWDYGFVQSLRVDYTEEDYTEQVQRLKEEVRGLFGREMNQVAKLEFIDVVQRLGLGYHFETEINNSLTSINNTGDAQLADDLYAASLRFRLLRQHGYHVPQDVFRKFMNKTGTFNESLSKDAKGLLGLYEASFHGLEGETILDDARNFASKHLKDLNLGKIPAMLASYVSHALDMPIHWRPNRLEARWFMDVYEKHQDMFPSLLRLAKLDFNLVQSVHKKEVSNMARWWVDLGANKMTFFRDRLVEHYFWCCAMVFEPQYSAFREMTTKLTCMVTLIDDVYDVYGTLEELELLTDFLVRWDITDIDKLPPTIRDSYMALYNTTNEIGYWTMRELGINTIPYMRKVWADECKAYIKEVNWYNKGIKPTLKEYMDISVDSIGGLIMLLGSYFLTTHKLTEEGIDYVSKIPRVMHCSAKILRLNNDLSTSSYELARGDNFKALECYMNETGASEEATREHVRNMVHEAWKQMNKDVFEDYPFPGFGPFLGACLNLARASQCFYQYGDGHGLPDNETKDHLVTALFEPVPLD
Kind of assay: product formation by GC-MS and chiral GC-FID.

The target of the next assay is T4, RtTPS4 (Rhodomyrtus tomentosa, UniProt A0A385J6Y5).
T4 construct: gene TPS4; 48 residues upstream of RRX8W motif; TPS-a subfamily
T4 sequence (A0A385J6Y5 1-594): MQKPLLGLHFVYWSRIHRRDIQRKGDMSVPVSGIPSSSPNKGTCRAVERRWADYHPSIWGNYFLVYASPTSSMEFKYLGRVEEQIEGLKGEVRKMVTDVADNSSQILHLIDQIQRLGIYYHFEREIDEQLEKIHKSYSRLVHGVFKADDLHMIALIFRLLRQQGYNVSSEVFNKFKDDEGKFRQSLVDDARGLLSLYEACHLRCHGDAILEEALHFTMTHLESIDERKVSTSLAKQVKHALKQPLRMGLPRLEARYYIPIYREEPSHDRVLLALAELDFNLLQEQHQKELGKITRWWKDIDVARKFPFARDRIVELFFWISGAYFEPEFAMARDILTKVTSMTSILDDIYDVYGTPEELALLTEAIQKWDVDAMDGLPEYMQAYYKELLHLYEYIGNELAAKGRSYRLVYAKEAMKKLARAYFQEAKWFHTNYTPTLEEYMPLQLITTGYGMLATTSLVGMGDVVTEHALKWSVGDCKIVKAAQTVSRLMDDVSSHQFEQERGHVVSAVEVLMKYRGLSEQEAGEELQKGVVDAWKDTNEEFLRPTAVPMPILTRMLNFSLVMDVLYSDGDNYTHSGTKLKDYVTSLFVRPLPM
Kind of assay: product formation by GC-MS and chiral GC-FID.

Assay [3] concerns the target T2, RtTPS3. Kind of assay: product formation by GC-MS and chiral GC-FID.
In assay [4] the target is T1, RtTPS1. The assay can be described thus: product formation by GC-MS and chiral GC-FID.

For `CC(C)=CCC/C(C)=C/CC/C(C)=C/COP(=O)(O)OP(=O)(O)O` [FPP], the “product formation by GC-MS” value on RtTPS1 [1] is “RtTPS1 and RtTPS3 are also active with FPP, producing β-caryophyllene”; on RtTPS3 [2] it was “RtTPS1 and RtTPS3 are also active with FPP, producing β-caryophyllene”.
As to `CC(C)=CCC/C(C)=C/COP(=O)(O)OP(=O)(O)O` [GPP], the “product formation by GC-MS and chiral GC-FID” value on RtTPS2 is “RtTPS1-4 produce mainly (+)-α-pinene and (+)-β-pinene”; on RtTPS4, “RtTPS1-4 produce mainly (+)-α-pinene and (+)-β-pinene”; at RtTPS3 [3], “RtTPS1-4 produce mainly (+)-α-pinene and (+)-β-pinene”; at RtTPS1 [4] it was “RtTPS1-4 produce mainly (+)-α-pinene and (+)-β-pinene”.
